Columns and labels:
tyrosinase = test: in vitro inhibition of melanin formation from L-DOPA by tyrosinase; assay type: biochemical; details: product diluted at 1.10^-3 mole.l^-1 (2 ml in mixture), pH 6.8, 4 hours at 37° C., optical density at 400 nm
Procedure: The reference used is the ascorbic acid in solution at 0.3.10^-3 mole l^-1.
2 ml of a L-DOPA solution, 1.25 ml of tyrosinase (2500 units/ml), 2 ml of product (Ia) diluted at 1.10^-3 mole.l^-1 are mixed together, and the mixture is completed with 20 ml of phosphate buffer (NaH2 PO4 0.1 mole l^-1 +Na2 HPO4 0.1 mole.l^-1, pH=6.8). The mixture is stirred for 4 hours at 37° C., then allowed to cool at room temperature for one night, shielded from light.
1 ml of concentrated hydrochloric acid is added and the mixture is centrifuged at 4000 rpm for 5 min. The pellet is washed with 10 ml of distilled water then centrifuged a second time. A reflux is made on the pellet with concentrated acid HCL 6N for 48 hours. The dried pellet is dissolved in 10 ml of toluene, exposed to ultrasounds for 2 min, put 2 hours at 37° C. then exposed to ultrasounds again for 5 min. The optical density is measured at 400 nm.

S91 melanoma cells = test: melanin content of UV-irradiated S91 melanoma cell cultures; assay type: cell-based; details: Mus musculus, S91, light or radiation study
Procedure: The inhibiting activity on melanin, of the 1-amino-ethylphosphinic acid (Ia) is studied on S91 melanoma cells cultures.
The model of study was finalized by Gilchrest (1987).
The cultured cells are purchased from a Cloudman melanom.
As ordinary melanocytes, they respond to UV stimuli by an increase of melanogenesis.
The melanogenesis evaluation is made through the melanin content and the activity of enzymes involved in this metabolism: tyrosinase and dopa-tautomerase.
S91 cells are plated in P60 dishes at a density of […] per dish and maintained in Dubelcco's modified Eagle's medium and provided with 10% of calf serum. When the cells have reached about 50% of confluence, they are exposed to a UV irradiation of 10 mJ/cm^2 at 285±5 nm. During irradiation, the medium is replaced with a salin phosphate solution (PBS) to eliminate the forming of toxical derivatives. Immediately after irradiation, the PBS is replaced with fresh medium/7% of calf serum with or without the active agent. After a 16 hours incubation, the medium is replaced with ordinary medium with or without the active agent. […]
The melanin content is then determined: melanocytes are trypsinized, twice washed with PBS and dissolved in 0.8 ml of NaOH 1N, when strongly vortexed for 10-15 min and heated at 60-80° C. The melanin concentration is determined based on the absorbance at 475 nm.

SMILES	percentage of inhibition of melanin (tyrosinase) [%]	inhibition at 500 µM (S91 melanoma cells; read-out: decrease of melanin rate in the cells) [%]	inhibition at 3300 µM (S91 melanoma cells; kojic acid at 3.3.10^-3 mole.l^-1, UV irradiation 10 mJ/cm^2, absorbance at 475 nm, read-out: decrease of melanin content in the cells) [%]
CC(N)[PH](=O)O (stereo not shown) [(Ia), 1-amino-ethylphosphinic acid]	46	47.2	
CC(C)CC(N)[PH](=O)O (stereo not shown) [(Ib), 1-amino-3-methylbutylphosphinic acid]	44		
O=c1cc(CO)occ1O [kojic acid, reference compound]			45.2

Reference: patent US6280715A, “Cosmetic composition useful notably for the skin whitening and melanogenesis inhibiting agent containing such a cosmetic composition” (Exsymol S.A.M., priority 1997, dated 2001)
